Laboratory results from patent US9833497B2, “Human originated EGF domain proteins and use of the same” (CHENGDU SOURCEBIO LIMITED-LIABILITY COMPANY, priority 2013, dated 2017).

Assays:
Type in all cases: cell-based
[1] = test system: Citrobacter diversus; assay: MIC against Gram-negative bacteria: Citrobacter diversus; conditions: Citrobacter diversus; 5×10^5 CFU/mL; 10 h cultivation at 37° C.
Outline: (§1)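 LB broth cultures at McFarland 0.5, spun down, resuspended, diluted to 5×10^5 CFU/mL final. Two-fold serial dilutions of purified human EGF domain proteins, triplicate. 37° C, 175 rpm shaking. Endpoint: no visible growth.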

[2] = test system: Klebsiella pneumonia; assay: MIC against Gram-negative bacteria: Klebsiella pneumonia; conditions: Klebsiella pneumonia; 5×10^5 CFU/mL; 10 h cultivation at 37° C.
Outline: as §1

[3] = test system: Pseudomonas aeruginosa; assay: MIC against Gram-negative bacteria: Pseudomonas aeruginosa; conditions: Pseudomonas aeruginosa; 5×10^5 CFU/mL; 10 h cultivation at 37° C.
Outline: as §1

[4] = test system: Proteus vulgaris; assay: MIC against Gram-negative bacteria: Proteus vulgaris; conditions: Proteus vulgaris; 5×10^5 CFU/mL; 10 h cultivation at 37° C.
Outline: as §1

[5] = test system: Moraxella catarrhalis; assay: MIC against Gram-negative bacteria: Moraxella catarrhalis; conditions: Moraxella catarrhalis; 5×10^5 CFU/mL; 10 h cultivation at 37° C.
Outline: as §1

[6] = test system: Serratia marcescens; assay: MIC against Gram-negative bacteria: Serratia marcescens; conditions: Serratia marcescens; 5×10^5 CFU/mL; 10 h cultivation at 37° C.
Outline: as §1

[7] = test system: Enterobacter cloacae; assay: MIC against Gram-negative bacteria: Enterobacter cloacae; conditions: Enterobacter cloacae; 5×10^5 CFU/mL; 10 h cultivation at 37° C.
Outline: as §1

[8] = test system: Aeromonas hydrophila; assay: MIC against Gram-negative bacteria: Aeromonas hydrophila; conditions: Aeromonas hydrophila; 5×10^5 CFU/mL; 10 h cultivation at 37° C.
Outline: as §1

[9] = test system: Proteus mirabilis; assay: MIC against Gram-negative bacteria: Proteus mirabilis; conditions: Proteus mirabilis; 5×10^5 CFU/mL; 10 h cultivation at 37° C.
Outline: as §1

[10] = test system: E. coli BL21; assay: MIC against Gram-negative bacteria: E. coli BL21; conditions: E. coli BL21; 5×10^5 CFU/mL; 10 h cultivation at 37° C.
Outline: as §1

[11] = test system: E. coli DH5α; assay: Antibacterial activity: MIC and growth curve against E. coli DH5α in 96-well plate; conditions: minimal inhibitory concentration against E. coli DH5α; 96-well plate, 5×10^5 CFU/mL, 37° C., judged after 8 h
Outline: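 MIC taken as lowest protein level with no bacterial growth, tracked by A600 every 30 min during 37 °C, 175 rpm culture. Two-fold protein series 50-12.5 μg/mL final, triplicate wells, against 5×10^5 CFU/mL of LB-washed mid-log cells.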

Substance	MIC against C. diversus [1]	MIC against K. pneumonia [2]	MIC against P. aeruginosa [3]	MIC against P. vulgaris [4]	MIC against M. catarrhalis [5]	MIC against S. marcescens [6]	MIC against E. cloacae [7]	MIC against A. hydrophila [8]	MIC against P. mirabilis [9]	MIC against E. coli BL21 [10]	MIC [11]
PRT1388 (RDSCPVLCGGNGEYEKGHCVCRHGWKGPECDV; listed as Homo sapiens)	12.5 µg/mL	12.5 µg/mL	12.5 µg/mL	12.5 µg/mL	25 µg/mL	12.5 µg/mL	12.5 µg/mL	25 µg/mL	12.5 µg/mL	12.5 µg/mL	100 µg/mL
PRT1389 (PEEQCIDPTCFGHGTCIMGVCICVPGYKGEICE; listed as Homo sapiens)	12.5 µg/mL	12.5 µg/mL	25 µg/mL	25 µg/mL	12.5 µg/mL	12.5 µg/mL	25 µg/mL	12.5 µg/mL	12.5 µg/mL	12.5 µg/mL	25 µg/mL
PRT1390 (EEDCLDPMCSNHGICVKGECHCSTGWGGVNCET; listed as Homo sapiens)	25 µg/mL	50 µg/mL	12.5 µg/mL	50 µg/mL	50 µg/mL	50 µg/mL	12.5 µg/mL	50 µg/mL	25 µg/mL	12.5 µg/mL	12.5 µg/mL
PRT1391 (PLPVCQEQCSGHGTFLLDAGVCSCDPKWTGSDCS; listed as Homo sapiens)	12.5 µg/mL	12.5 µg/mL	12.5 µg/mL	12.5 µg/mL	12.5 µg/mL	12.5 µg/mL	12.5 µg/mL	12.5 µg/mL	12.5 µg/mL	12.5 µg/mL	12.5 µg/mL
PRT1392 (TELCTMECGSHGVCSRGICQCEEGWVGPTC; listed as Homo sapiens)	12.5 µg/mL	25 µg/mL	12.5 µg/mL	25 µg/mL	25 µg/mL	50 µg/mL	12.5 µg/mL	25 µg/mL	12.5 µg/mL	25 µg/mL	12.5 µg/mL
PRT1393 (EERSCHSHCTEHGQCKDGKCECSPGWEGDHCT; listed as Homo sapiens)	25 µg/mL	50 µg/mL	25 µg/mL	50 µg/mL	50 µg/mL	12.5 µg/mL	25 µg/mL	12.5 µg/mL	12.5 µg/mL	12.5 µg/mL	25 µg/mL
PRT1394 (VRDGCPGLCFGNGRCTLDQNGWHCVCQVGWSGTGCN; listed as Homo sapiens)	50 µg/mL	50 µg/mL	12.5 µg/mL	25 µg/mL	25 µg/mL	50 µg/mL	12.5 µg/mL	25 µg/mL	12.5 µg/mL	12.5 µg/mL	50 µg/mL
